Measurements: patent US20210299059A1, “INJECTABLE PHARMACEUTICAL COMPOSITION AND PREPARATION METHOD THEREFOR” (Jiangsu Hengrui Medicine CO., LTD., priority 2018, published 2021)

Tests used:
[1] = cited from earlier work
[2] = Pharmacokinetics study, subcutaneous apixaban injection (Embodiment 4); assay type: in vivo, humans; settings: human, plasma, sc, 2.5 mg, plasma drug concentration of apixaban, 1 mL of 2.5 mg/mL apixaban injection subcutaneously
[3] = cited from earlier work; remark: listed apart in the source

Compound: COc1ccc(-n2nc(C(N)=O)c3c2C(=O)N(c2ccc(N4CCCCC4=O)cc2)CC3)cc1 [apixaban, Apixaban]
- ionization ([1]; at physiological pH (1.2 to 6.8)): not ionized
- LogP [1]: 3.53
- solubility ([1]; in the physiological pH range (1.2 to 6.8)): about 0.04 mg/ml
- concentration at 0 h ([2]; Mean of three subjects): 0 ng/mL
- concentration at 0.25 h ([2]; Mean of three subjects): 6.19 ng/mL
- concentration at 0.5 h ([2]; Mean of three subjects): 14.5 ng/mL
- concentration at 1 h ([2]; Mean of three subjects): 27.1 ng/mL
- concentration at 2 h ([2]; Mean of three subjects): 40.6 ng/mL
- concentration at 3 h ([2]; Mean of three subjects): 47.3 ng/mL
- concentration at 4 h ([2]; Mean of three subjects): 51.2 ng/mL
- concentration at 5 h ([2]; Mean of three subjects): 43.4 ng/mL
- concentration at 6 h ([2]; Mean of three subjects): 41.6 ng/mL
- concentration at 8 h ([2]; Mean of three subjects): 39.3 ng/mL
- concentration at 10 h ([2]; Mean of three subjects): 32.2 ng/mL
- concentration at 16 h ([2]; Mean of three subjects): 21.2 ng/mL
- concentration at 24 h ([2]; Mean of three subjects): 13.8 ng/mL
- concentration at 0 h ([2]; subject C-01): 0 ng/mL
- concentration at 0.25 h ([2]; subject C-01): 8.08 ng/mL
- concentration at 0.5 h ([2]; subject C-01): 18.2 ng/mL
- concentration at 1 h ([2]; subject C-01): 35.8 ng/mL
- concentration at 2 h ([2]; subject C-01): 52 ng/mL
- concentration at 3 h ([2]; subject C-01): 62.1 ng/mL
- concentration at 4 h ([2]; subject C-01): 68.8 ng/mL
- concentration at 5 h ([2]; subject C-01): 52.4 ng/mL
- concentration at 6 h ([2]; subject C-01): 48.8 ng/mL
- concentration at 8 h ([2]; subject C-01): 46.7 ng/mL
- concentration at 10 h ([2]; subject C-01): 37.6 ng/mL
- concentration at 16 h ([2]; subject C-01): 22.8 ng/mL
- concentration at 24 h ([2]; subject C-01): 14.3 ng/mL
- concentration at 0 h ([2]; subject C-02): 0 ng/mL
- concentration at 0.25 h ([2]; subject C-02): 5.36 ng/mL
- concentration at 0.5 h ([2]; subject C-02): 14.3 ng/mL
- concentration at 1 h ([2]; subject C-02): 23.8 ng/mL
- concentration at 2 h ([2]; subject C-02): 37.9 ng/mL
- concentration at 3 h ([2]; subject C-02): 43.2 ng/mL
- concentration at 4 h ([2]; subject C-02): 44.8 ng/mL
- concentration at 5 h ([2]; subject C-02): 38.1 ng/mL
- concentration at 6 h ([2]; subject C-02): 40.4 ng/mL
- concentration at 8 h ([2]; subject C-02): 33.4 ng/mL
- concentration at 10 h ([2]; subject C-02): 28.9 ng/mL
- concentration at 16 h ([2]; subject C-02): 19.2 ng/mL
- concentration at 24 h ([2]; subject C-02): 11.4 ng/mL
- concentration at 0 h ([2]; subject C-03): 0 ng/mL
- concentration at 0.25 h ([2]; subject C-03): 5.13 ng/mL
- concentration at 0.5 h ([2]; subject C-03): 10.9 ng/mL
- concentration at 1 h ([2]; subject C-03): 21.7 ng/mL
- concentration at 2 h ([2]; subject C-03): 31.9 ng/mL
- concentration at 3 h ([2]; subject C-03): 36.6 ng/mL
- concentration at 4 h ([2]; subject C-03): 40 ng/mL
- concentration at 5 h ([2]; subject C-03): 39.7 ng/mL
- concentration at 6 h ([2]; subject C-03): 35.5 ng/mL
- concentration at 8 h ([2]; subject C-03): 37.6 ng/mL
- concentration at 10 h ([2]; subject C-03): 30.1 ng/mL
- concentration at 16 h ([2]; subject C-03): 21.6 ng/mL
- concentration at 24 h ([2]; subject C-03): 15.8 ng/mL
- oral bioavailability [3]: approximately 50%
